In patent US8450283B2, “Composition for treating cancer and use thereof” (National Taiwan University, priority 2008, dated 2013):
“Also recorded” adds a separate entry of the source. Where a SMILES comes first, the peptide text is derived from it. Bridges are numbered along the chain shown (N, C = ends).

Key:
PI3K = experiment: Phosphoinositide-3-kinase activity assay in CL1-5 cells; format: cell-based, human; details: 48 h after transfection, 1.3 nmol/L VEGF165, vs nonsilencing siRNA
Experimental: Phosphoinositide-3-kinase (PI3K) activities were assayed as described previously (Lin M T, et al., J Biol Chem 2001, 276: 48997-49002) with some modifications. In brief, CL1-5 cell extracts were incubated with the antiphosphotyrosine antibody and then precipitated with protein A-Sepharose. The immunocomplexes were preincubated with phosphatidylinositol-4,5-P2 (Sigma), and the kinase reaction was initiated by adding 10 μCi of [γ-^32P]ATP in reaction buffer for 15 min. Phospholipids were separated by TLC and visualized by phosphorimaging.

CL1-5 cells [1] = experiment: In vitro invasion assay (modified Boyden chamber, Matrigel); format: cell-based, human; details: 48 h, Matrigel-coated Transwell
Experimental: A modified Boyden chamber system was used to investigate the invasive capability of CL cells treated with selected peptides, sNRP1, and siRNA of NRP1 (Chu Y W, et al., Am J Respir Cell Mol Biol 1997, 17: 353-360). The polycarbonate membranes (containing 8-μm pores) of Transwell inserts were coated with Matrigel. The cells were suspended in RPMI 1640 containing 10% NuSerum (Life Science), and 2.5×10^4 cells were placed into the upper well of each chamber. After incubation for 48 h at 37° C., the Transwell membrane was fixed with methanol for 10 min at room temperature and stained with a 50 μg/mL solution of propidium iodide (Sigma) for 30 min at room temperature. The number of cells in each membrane was counted under a microscope at a magnification of ×50 using the Analytical Imaging Station software package (Imaging Research Inc.). Each sample was assayed in triplicate.

NRP1 [2] = experiment: NRP1 expression after siRNA transfection (Western blot); format: cell-based, human; details: CL1-5 cells transfected with siRNA
CL1-5 cells [3] = experiment: Scratch wound healing migration assay; format: cell-based, human; details: 24 h after scratch, 24 nmol/L siRNA
Experimental: Cell migration was measured by the in vitro scratch wound healing assay (Tamura M, et al., Science 1998, 280: 1614-1617). CL1-5 cells were transfected with 24 nmol/L siRNA-1 in 12-well plates. Twenty-four hours after transfection, cells were scratched with a yellow pipette tip and photographed 18, 21, and 24 h after the scratch. The cell migration at 0, 18, 21, and 24 h was evaluated by counting cells that had migrated from the wound edge.

VEGFR2 = experiment: VEGF165-induced VEGFR2 phosphorylation in CL1-5 cells (immunoprecipitation / Western blot); format: cell-based, human
Experimental: VEGFR2 phosphorylation was assessed as previously described (Soker S, et al., J Cell Biochem 2002, 85:357-368). Briefly, CL1-5 cells were treated with a mixture of hVEGF and sNRP1 for 30 min on ice and then at 37° C. for 7 min. Cell lysates were immunoprecipitated with anti-VEGFR2 antibodies. For Western blotting, the membranes were first probed with anti-Flk-1 antibodies and then reprobed with anti-phospho-VEGFR2 antibodies 2/3(pc460) after being stripped with deblotting buffer. In the antiangiogenesis assay, HUVECs were pretreated with peptides for 10 min followed by treatment with VEGF for 5 min, and the cells were then immediately extracted with lysis buffer. Activation of Flk-1/KDR was determined by immunoblotting cell extracts with anti-Flk-1 antibodies and then reprobing with anti-phospho-VEGFR2 antibodies (pTyr^1214) after the membranes had been stripped with deblotting buffer.

Akt = experiment: VEGF165-induced Akt phosphorylation in CL1-5 cells (Western blot); format: cell-based, human; details: 1.3 nmol/L VEGF165, 10 nmol/L sNRP1
human VEGF165 = biological target: T1, human VEGF165 (Homo sapiens, UniProt P15692); experiment: Surface plasmon resonance binding of recombinant sNRP1 to VEGF165; details: read-out: average dissociation constant (KD) of human VEGF165 binding to sNRP1
T1 construct: purchased PeproTech, Inc
T1 sequence (P15692 27-191 isoform P15692-4): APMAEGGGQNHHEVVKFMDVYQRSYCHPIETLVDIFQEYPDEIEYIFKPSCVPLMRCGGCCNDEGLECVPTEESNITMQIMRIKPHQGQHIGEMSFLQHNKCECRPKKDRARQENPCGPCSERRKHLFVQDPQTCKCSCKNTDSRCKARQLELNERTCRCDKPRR
Experimental: (§1) The binding kinetics of selected peptides with NRP1 were tested using the surface plasmon resonance based measuring system (Biacore AB) at 25° C. Recombinant NRP1 was immobilized on CM5 sensor chips by amine coupling at 400 response units using the amine coupling kit (Biacore) according to the manufacturer's instructions. Binding was detected in resonance units after injecting various concentrations of peptide at a flow rate of 30 μL/min. Sensograms of association and dissociation were recorded and analyzed using BIAevaluation software 3.0 (Biacore AB).

CL1-5 cells [4] = experiment: Filamentous actin staining (rhodamine-phalloidin); format: cell-based, human
Experimental: For filamentous actin (F-actin) staining, cells were seeded on coverslips in 24-well plates and allowed to attach for 24 h in medium containing 10% FCS. The cells were fixed, washed, and permeabilized in 0.1% Triton-X. The cells were incubated for 30 min with 5 units/mL of rhodamine-conjugated phalloidin (Molecular Probe) and mounted using Fluor Save reagent (Calbiochem). The slides were analyzed using a Zeiss Axioplan 2 microscope.

NRP1 [5] = biological target: T2, NRP1 (Homo sapiens, UniProt O14786); experiment: Surface plasmon resonance (Biacore) binding of selected peptides to NRP1; details: 25° C., immobilized recombinant NRP1, read-out: ka
T2 construct: Recombinant soluble NRP1 (sNRP1) protein containing His6 and c-Myc domain tags was synthesized in NIH-3T3 murine fibroblast cells; His6; c-Myc; made in house; host or cells: NIH-3T3 fibroblast cells, secreted into medium, purified on Ni-NTA
T2 sequence (O14786 22-644 isoform O14786-2 limits assumed): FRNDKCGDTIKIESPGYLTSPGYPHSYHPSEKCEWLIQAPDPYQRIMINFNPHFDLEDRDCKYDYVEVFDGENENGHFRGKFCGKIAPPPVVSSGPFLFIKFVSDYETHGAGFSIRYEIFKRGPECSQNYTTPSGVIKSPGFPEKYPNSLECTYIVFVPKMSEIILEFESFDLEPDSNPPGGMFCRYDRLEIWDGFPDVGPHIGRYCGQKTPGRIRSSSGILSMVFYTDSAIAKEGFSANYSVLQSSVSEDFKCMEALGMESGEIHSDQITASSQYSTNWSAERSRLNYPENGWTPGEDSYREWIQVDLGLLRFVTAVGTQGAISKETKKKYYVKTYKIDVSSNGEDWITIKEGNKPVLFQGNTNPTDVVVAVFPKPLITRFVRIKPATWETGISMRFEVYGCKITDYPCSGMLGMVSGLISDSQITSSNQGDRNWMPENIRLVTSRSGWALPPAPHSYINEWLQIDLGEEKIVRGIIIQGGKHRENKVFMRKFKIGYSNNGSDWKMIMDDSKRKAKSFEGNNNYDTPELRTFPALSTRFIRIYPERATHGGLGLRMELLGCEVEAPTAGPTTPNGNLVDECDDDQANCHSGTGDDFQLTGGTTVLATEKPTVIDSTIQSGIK
Experimental: as §1

CL1-5 cells [6] = experiment: Cytotoxicity / cell viability of peptide-treated cancer cells; format: cell-based, human; details: peptide treatment of cancer cells

Compound	invasion ability of CL1-5 cells (in words) (CL1-5 cells [1])	NRP1 expression (NRP1 [2])	kon (NRP1 [5]) [M⁻¹ s⁻¹]	cytotoxicity / cell viability (CL1-5 cells [6])	further results
AACACCTAGTGGAGTGATAAA [siRNA-1]	decreased the invasion ability of CL1-5 cells in a dose-dependent manner	Significant suppression			VEGF165-induced PI3K activation (PI3K): decreased; migration of CL1-5 cells (CL1-5 cells [3]): significantly inhibited
AACAGCCTTGAATGCACTTAT [siRNA-2]	decreased the invasion ability of CL1-5 cells in a dose-dependent manner	Significant suppression			
sNRP1: Recombinant soluble NRP1 protein containing His6 and c-Myc domain tags, synthesized in NIH-3T3 cells	dose-dependent decrease				VEGF165-induced VEGFR2 activation (VEGFR2; VEGF165 plus sNRP1): decreased by sNRP1 in a dose-dependent manner; VEGF165-induced VEGFR2 activation (VEGFR2; high concentrations of sNRP1): totally blocked; VEGF165-induced phosphorylation of Akt at Ser473 (Akt): decreased to less than one third; Kd (human VEGF165): 125 nM; F-actin polymerization and filopodia formation (CL1-5 cells [4]): inhibited F-actin polymerization and filopodia formation
CC[C@H](C)[C@@H]1NC(=O)[C@H](CCCNC(=N)N)NC(=O)[C@H](CCCNC(=N)N)NC(=O)[C@H](CO)NC(=O)[C@H](CCCNC(=N)N)NC(=O)[C@@H](N)CSSC[C@@H](C(=O)O)NC(=O)[C@H](CC(C)C)NC(=O)[C@H](CCCNC(=N)N)NC1=O [DG2, CRSRRIRLC] (H-CRSRRIRLC-OH; disulfide 1-9; N-terminus and C-terminus assumed)			123 ± 24	not cytotoxic	
CSCC[C@@H]1NC(=O)[C@H](CCCNC(=N)N)NC(=O)[C@@H]2CCCN2C(=O)[C@H](CCCNC(=N)N)NC(=O)[C@H](CCCNC(=N)N)NC(=O)[C@@H](N)CSSC[C@@H](C(=O)O)NC(=O)[C@H]([C@@H](C)O)NC(=O)[C@H](CC(C)C)NC1=O [DG1, CRRPRMLTC] (H-CRRPRMLTC-OH; disulfide 1-9; N-terminus and C-terminus assumed)			1230	without affecting cell viability; also recorded: not cytotoxic	
